Consider nine compounds from patent US12172992B2, “Pyrimidines for degrading Bruton's tyrosine kinase” (AbbVie Inc., priority 2022, dated 2024).

Assay [1] deals with BTK protein in human whole blood (Homo sapiens (Human), UniProt Q06187). Nature of the assay: Btk protein in human whole blood MSD ELISA based assay (BTK degradation). The conditions noted are these: 6 hours, maximum BTK degradation compared to DMSO only treated samples, read-out: hWB BTK dMax (%). The format is cell-based. The method, then: Btk protein degradation was tested using an Meso Scale Discovery-ELISA system (MSD-ELISA): (1) Test compounds were added to human whole blood; (2) human whole blood cells treated with test compounds were lysed; (3) lysed cells were treated with capture antibody, an antibody to Btk; (4) lysed cells were treated with […] to Btk; and (5) lysed cells were treated with anti-mouse antibody (tagged).
Specifically, about 80 μl of fresh human whole blood from healthy donors was transferred into each well of a 96-well V-bottom plate (Costar, Cat No. 3894). Using a TECAN™ D300e Digital Dispenser (Tecan)), 1:4 serially diluted compounds [(8 pt assay) in DMSO solution (final 0.2%) starting at 3 μM top concentration], were added in duplicate. Thereafter, plates were placed in a 37° C. incubator and incubated for 6 hours.
At the end of incubation, 80 μl of 2×CST lysis buffer (Cell Signaling Technology, Cat No. 9803), prepared from a 10× stock solution, was added per well to lyse the blood. Plates were then sealed with a plate sealer and the samples were frozen overnight at −80° C.
Total amount of BTK protein remaining in the blood samples after compound treatment was measured using MSD-ELISA. After thawing the frozen plates, blood lysates were mixed thoroughly and transferred to small spot high-bind MSD plates (Meso Scale Discovery, Cat No. L45XB-3) and coated with capturing antibody, rabbit anti-human BTK (D3H5) (Cell Signaling Technology, Cat No. 8547CF). Thereafter, primary detection antibody, mouse anti-human BTK monoclonal antibody, (BD Biosciences, Cat No. 611117) and secondary detection antibody, anti-mouse SULFO-TAG (Meso Scale Discovery, Cat No. R32AC-1) were added. The assay plates were read on an MSD S600 plate reader by the addition of 2×MSD read buffer (Meso Scale Discovery, R92TC-1). All reagent transfers, including blood lysis, was conducted using a Biomed i7 liquid handler. From the dose response curves, DC50 values were calculated by averaging data from duplicate experiments. and Curve fitting was done by non-linear regression using GraphPad Prism. The DC50 values are reported in Table 2 in the hWB BTK DC50 (nM) column The Dmax values represent the maximum amount of BTK degradation observed upon compound treatment compared to DMSO only treated samples. The dMax (%) values are reported in Table 2 in the hWB BTK dMax (%) column.

The next assay concerns the target BTK in mouse bone marrow (Mus musculus (Mouse), UniProt P35991). Nature of the assay: Mouse Bone Marrow Assay (MSD ELISA of BTK degradation in bone marrow). The format is in vivo. To be noted: female C57BL/6J mice, single dose of Dose A, bone marrow collected after 24 hours. On the procedure:
Female C57BL/6J mice (Jackson Laboratories) were used for this study. Compounds or vehicle/control were prepped with EtOH; PEG-400; Phosal 53 MCT (10:30:60, v/v). Four mice were tested per compound or vehicle/control. On Day 1, mice were administered a single dose of Dose A. On Day 2 (after 24 hours), tissue (bone marrow) was collected from one hind leg per mouse.
An MSD (Meso Scale Discovery) ELISA (enzyme-linked immunosorbent assay) based assay was used to determine BTK degradation in mouse bone marrow. The following materials and equipment were used: 10% NP40 solution (nonionic polyoxyethylene surfactant, ThermoFisher, cat no. 28324); protease inhibitor mini tablet (Roche, cat no. 05 892 970 001); PhosphoSTOP™ tablet (Roche, cat no. 04 906 837 001); Pierce™ BCA Protein Assay Kit (Thermofisher, Cat No. 23225); Precellys® 2 mL lysing tube with 2.8 mm beads (VWR, cat no. 10032-756); Bertin Precellys® 24/Cryolys® cooling system; 96-well MSD streptavidin pre-coated plates (MSD, cat no. L15SA-1); MSD Blocker A (MSD, cat no. R93BA-4); capture antibody, biotinylated BTK mAb (BD Biosciences, cat no. 624008; custom order); primary detection antibody, BTK RpAb (rabbit polyclonal antibody, CST, cat no. 8547S, D3H5 clone); secondary detection antibody, anti-Rabbit-Sulfo-Tag (MSD, cat no. R32AB-1); read Buffer, 4× (MSD, cat no. R92TC-1); recombinant BTK protein (Thermofisher, cat no. PR5442A); MSD Tris Wash Buffer (10×) (MSD, cat no. R61TX-1); PBS (phosphate-buffered saline); deionized water (diH2O); Lysis Buffer [0.2% NP40 in PBS+Protease Inhibitor tablet (1 tablet/10 mL)+PhosphoSTOP tablet (1 tablet/10 mL)]; 3% MSD Blocker A [MSD Blocker A+450 mL diH2O+50 mL]; and 10×MSD Tris Wash Buffer.
Lysis buffer [(PBS+0.2% NP40+PI (protease inhibitor)+PhosphoSTOP)] was prepared and put on ice until it was fully cold. Ice cold lysis buffer […] was added to each Precellys® tube containing beads and bone marrow sample. Sample tubes were transferred into Precellys® machine and homogenized using 5000 rpm—2×20 seconds. The sample lysates were centrifuged at 14,000 rpm for 20 minutes at 4° C. after homogenizing.
The protein concentration was determined using Pierce™ BCA Protein Assay Kit following manufacturer's recommended protocol. The protein normalized working solution was prepared, using 30 μg protein per sample lysate for assay.
A 300 ng/ml working stock solution of recombinant BTK protein in lysis buffer was prepared, and the sample was serially diluted at 3-fold dilution (10-point assay, highest concentration was 300 ng/mL and lowest concentration was 0.015 ng/mL)
MSD plate coating: Coating antibody (biotinylated-BTK mAb) stock solution was prepared at 1 μg/mL in PBS buffer. 50 μL/well capture antibody (Biotinylated BTK mAb) solution was added, and the plates were shaken gently at ambient temperature for two hours. The plates were washed 3 times with 1×MSD Tris Wash Buffer in a plate washer (300 μL/well), and the plates were blocked with 3% MSD Blocker A (150 μL/well). The plates were incubated for an additional 1-2 hours at ambient temperature with gentle shaking. The plates were washed 3 times with 1×MSD wash buffer using plate washer. Bone marrow lysates (30 μg) at a final volume of 50 μL/well were added into the plates. The serially diluted standard samples were added to the same plates at a final volume of 50 μL/well. The plates were incubated overnight at 4° C. with gentle shaking.
The plates were washed three times with 1×MSD wash buffer (prepared from 10× concentration buffer) using plate washer. Primary detection antibody at 50 μL/well was added (BTK RpAb; 1:1000 dilution in 1% MSD Blocker A). The plates were incubated for two hours at ambient temperature with gentle shaking. The plates were washed three times with 1×MSD wash buffer using plate washer. Anti-Rabbit-SULFO-TAG secondary antibodies (50 μl/well) were added, 1:500 diluted in 1% MSD Blocker A, and the plates were incubated for one to two hours at ambient temperature. […]
(In general: In an ELISA, binding on a coated surface is turned into a signal by an enzyme label.)

BTK in mouse bone marrow, sequence (P35991 whole entry): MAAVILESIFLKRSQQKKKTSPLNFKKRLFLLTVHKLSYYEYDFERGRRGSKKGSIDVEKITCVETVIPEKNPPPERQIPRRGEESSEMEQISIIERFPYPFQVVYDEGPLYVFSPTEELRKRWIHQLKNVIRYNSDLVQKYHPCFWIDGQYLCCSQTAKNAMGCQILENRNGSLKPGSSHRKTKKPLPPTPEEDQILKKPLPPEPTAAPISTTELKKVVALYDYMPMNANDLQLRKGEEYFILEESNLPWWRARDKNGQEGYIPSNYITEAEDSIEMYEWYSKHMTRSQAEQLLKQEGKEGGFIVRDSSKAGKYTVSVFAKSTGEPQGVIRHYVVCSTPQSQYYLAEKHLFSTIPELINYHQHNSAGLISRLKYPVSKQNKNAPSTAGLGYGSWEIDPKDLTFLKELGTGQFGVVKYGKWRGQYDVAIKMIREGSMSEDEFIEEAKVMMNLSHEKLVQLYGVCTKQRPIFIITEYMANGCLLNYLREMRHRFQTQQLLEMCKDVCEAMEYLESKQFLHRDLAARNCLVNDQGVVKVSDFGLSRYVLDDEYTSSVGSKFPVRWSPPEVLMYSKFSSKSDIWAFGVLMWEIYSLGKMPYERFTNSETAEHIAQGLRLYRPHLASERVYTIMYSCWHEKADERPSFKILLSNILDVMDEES
BTK protein in human whole blood, sequence (Q06187 whole entry): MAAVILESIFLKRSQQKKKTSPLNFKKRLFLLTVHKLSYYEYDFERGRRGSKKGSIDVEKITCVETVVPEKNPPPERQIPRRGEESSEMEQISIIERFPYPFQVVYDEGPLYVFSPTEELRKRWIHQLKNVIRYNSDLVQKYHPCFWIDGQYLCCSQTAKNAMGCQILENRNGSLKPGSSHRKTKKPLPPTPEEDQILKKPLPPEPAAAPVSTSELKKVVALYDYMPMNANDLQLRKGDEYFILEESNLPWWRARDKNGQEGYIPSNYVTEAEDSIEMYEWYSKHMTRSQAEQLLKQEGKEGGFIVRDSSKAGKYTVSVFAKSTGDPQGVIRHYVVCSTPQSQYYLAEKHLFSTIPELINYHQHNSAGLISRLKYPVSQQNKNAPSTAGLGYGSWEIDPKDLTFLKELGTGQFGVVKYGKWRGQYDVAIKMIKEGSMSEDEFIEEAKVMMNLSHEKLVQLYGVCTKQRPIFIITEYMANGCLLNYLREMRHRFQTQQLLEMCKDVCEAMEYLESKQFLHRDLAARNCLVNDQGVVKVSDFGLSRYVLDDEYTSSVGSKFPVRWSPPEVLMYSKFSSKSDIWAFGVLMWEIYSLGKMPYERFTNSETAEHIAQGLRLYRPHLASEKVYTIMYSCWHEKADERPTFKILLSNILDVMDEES

`CC[C@@H]1CN(CCc2ccc(N3CCC(=O)NC3=O)cc2)CCN1c1ccc(Nc2cc(-c3ccc([C@@H](C)NC(=O)c4nc(C(C)(C)C)no4)c(C)c3)ncn2)nc1` [Example 8, 3-tert-butyl-N-[(1R)-1-{4-[6-({5-[(2R)-4-{2-[4-(2,4-dioxo-1,3-diazinan-1-yl)phenyl]ethyl}-2-ethylpiperazin-1-yl]pyridin-2-yl}amino)pyrimidin-4-yl]-2-methylphenyl}ethyl]-1,2,4-oxadiazole-5-carboxamide]: the Dmax (usually the largest share of the target that was removed) in assay [1] was found to be 98.6%. Further, the “Mouse Bone Marrow (%) (% remaining BTK, vehicle versus treated)” value on BTK in mouse bone marrow turned out to be 30%.

As for `Cc1cc(-c2cc(Nc3ccc(N4CCN(CCc5ccc(N6CCC(=O)NC6=O)cc5)CC4(C)C)cn3)ncn2)ccc1[C@@H](C)NC(=O)c1nc(C(C)(C)C)no1` [Example 9, 3-tert-butyl-N-{(1R)-1-[4-(6-{{5-(4-{2-[4-(2,4-dioxo-1,3-diazinan-1-yl)phenyl]ethyl}-2,2-dimethylpiperazin-1-yl)pyridin-2-yl}amino}pyrimidin-4-yl)-2-methylphenyl]ethyl}-1,2,4-oxadiazole-5-carboxamide], in assay [1], the Dmax came out at 99.5%. The “Mouse Bone Marrow (%) (% remaining BTK, vehicle versus treated)” value at BTK in mouse bone marrow turned out to be 31%.

As to `Cc1c([C@@H](C)NC(=O)c2nc(C(C)(C)C)no2)ccc(-c2cc(Nc3ccc(N4CCN(CCc5ccc(N6CCC(=O)NC6=O)cc5)C[C@@H]4C)cn3)ncn2)c1F` [Example 10, 3-tert-butyl-N-[(1R)-1-{4-[6-({5-[(2S)-4-{2-[4-(2,4-dioxo-1,3-diazinan-1-yl)phenyl]ethyl}-2-methylpiperazin-1-yl]pyridin-2-yl}amino)pyrimidin-4-yl]-3-fluoro-2-methylphenyl}ethyl]-1,2,4-oxadiazole-5-carboxamide], the Dmax in assay [1] is 98.5%. Moreover, the “Mouse Bone Marrow (%) (% remaining BTK, vehicle versus treated)” value on BTK in mouse bone marrow is reported as 9%.

As for `Cc1c([C@@H](C)NC(=O)c2nc(C(C)(C)C)no2)ccc(-c2cc(Nc3ccc(N4CCN(CCc5ccc(N6CCC(=O)NC6=O)cc5)CC4)cn3)ncn2)c1F` [Example 11, 3-tert-butyl-N-{(1R)-1-[4-(6-{[5-(4-{2-[4-(2,4-dioxo-1,3-diazinan-1-yl)phenyl]ethyl}piperazin-1-yl)pyridin-2-yl]amino}pyrimidin-4-yl)-3-fluoro-2-methylphenyl]ethyl}-1,2,4-oxadiazole-5-carboxamide], the Dmax in assay [1] worked out at 97.7%. The “Mouse Bone Marrow (%) (% remaining BTK, vehicle versus treated)” value at BTK in mouse bone marrow was 29%.

For `Cc1cc(-c2cc(Nc3ccc(N4CCN(CCc5ccc(N6CCC(=O)NC6=O)cc5)CC4)cn3)ncn2)c(F)cc1[C@@H](C)NC(=O)c1nc(C(C)(C)C)no1` [Example 12, 3-tert-butyl-N-{(1R)-1-[4-(6-{[5-(4-{2-[4-(2,4-dioxo-1,3-diazinan-1-yl)phenyl]ethyl}piperazin-1-yl)pyridin-2-yl]amino}pyrimidin-4-yl)-5-fluoro-2-methylphenyl]ethyl}-1,2,4-oxadiazole-5-carboxamide], the Dmax in assay [1] came to 99.8%. The “Mouse Bone Marrow (%) (% remaining BTK, vehicle versus treated)” value at BTK in mouse bone marrow amounted to 17%.

`Cc1cc(-c2cc(Nc3ccc(N4CCN(CCc5ccc(N6CCC(=O)NC6=O)cc5)C[C@@H]4C(C)C)cn3)ncn2)ccc1[C@@H](C)NC(=O)c1nc(C(C)(C)C)no1` [Example 13, 3-tert-butyl-N-[(1R)-1-{4-[6-({5-[(2S)-4-{2-[4-(2,4-dioxo-1,3-diazinan-1-yl)phenyl]ethyl}-2-(propan-2-yl)piperazin-1-yl]pyridin-2-yl}amino)pyrimidin-4-yl]-2-methylphenyl}ethyl]-1,2,4-oxadiazole-5-carboxamide]: in assay [1], the Dmax was 99%. For the same compound, the “Mouse Bone Marrow (%) (% remaining BTK, vehicle versus treated)” value at BTK in mouse bone marrow is listed as 26%.

For the compound `C[C@@H](NC(=O)c1nc(C(C)(C)C)no1)c1ccc(-c2cc(Nc3ccc(N4CCN(CCc5ccc(N6CCC(=O)NC6=O)cc5)C[C@@H]4C)cn3)ncn2)cc1Cl` [Example 14, 3-tert-butyl-N-[(1R)-1-{2-chloro-4-[6-({5-[(2S)-4-{2-[4-(2,4-dioxo-1,3-diazinan-1-yl)phenyl]ethyl}-2-methylpiperazin-1-yl]pyridin-2-yl}amino)pyrimidin-4-yl]phenyl}ethyl]-1,2,4-oxadiazole-5-carboxamide], the Dmax in assay [1] turned out to be 99.7%. The “Mouse Bone Marrow (%) (% remaining BTK, vehicle versus treated)” value on BTK in mouse bone marrow is 16%.

Turning to `Cc1cc(-c2cc(Nc3ccc(N4CCN(CCc5ccc(N6CCC(=O)NC6=O)cc5)C[C@@H]4C)cc3)ncn2)ccc1[C@@H](C)NC(=O)c1nc(C(C)(C)C)no1` [Example 18], the greatest degradation seen (Dmax) in assay [1] was 99.5%. Moreover, the “Mouse Bone Marrow (%) (% remaining BTK, vehicle versus treated)” value at BTK in mouse bone marrow is 25%.

As for `Cc1cc(-c2cc(Nc3ccc(CCN4CCN(c5ccc(N6CCC(=O)NC6=O)cc5)CC4)cn3)ncn2)ccc1[C@@H](C)NC(=O)c1nc(C(C)(C)C)no1` [Example 19], in assay [1], the Dmax is 100%. In addition, the “Mouse Bone Marrow (%) (% remaining BTK, vehicle versus treated)” value on BTK in mouse bone marrow worked out at 51%.
